Experimental data taken from BindingDB's records for doi:10.7270/Q2NS0S8J (University of Pittsburgh, 2007).

Biological target: T1, M-phase inducer phosphatase 2 (Homo sapiens, UniProt P30305)
T1 sequence (P30305 whole entry): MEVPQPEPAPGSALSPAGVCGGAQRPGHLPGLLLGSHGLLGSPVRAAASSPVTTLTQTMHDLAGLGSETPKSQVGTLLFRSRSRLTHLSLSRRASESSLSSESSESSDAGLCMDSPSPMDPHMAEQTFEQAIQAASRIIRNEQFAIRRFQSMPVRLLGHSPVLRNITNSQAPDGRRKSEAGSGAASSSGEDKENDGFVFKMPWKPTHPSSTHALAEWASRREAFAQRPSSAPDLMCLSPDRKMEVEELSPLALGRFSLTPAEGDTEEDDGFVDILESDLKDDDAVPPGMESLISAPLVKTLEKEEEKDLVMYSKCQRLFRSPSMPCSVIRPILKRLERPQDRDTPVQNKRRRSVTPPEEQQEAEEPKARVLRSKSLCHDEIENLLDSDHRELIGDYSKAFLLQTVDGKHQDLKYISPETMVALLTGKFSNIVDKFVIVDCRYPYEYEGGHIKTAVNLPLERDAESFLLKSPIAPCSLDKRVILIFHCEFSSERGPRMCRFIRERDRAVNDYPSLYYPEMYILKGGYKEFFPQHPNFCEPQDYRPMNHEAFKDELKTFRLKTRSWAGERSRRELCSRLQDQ
Test: Cdc25B inhibition under reducing thiol conditions, late-stage follow-up, Cdc25B inhibitor project, biochemical, beta-mercaptoethanol present, catalytic domain, IC50 (AID 670)

| IC50 [µM] | Structure (SMILES) |
| --- | --- |
| > 50 | Cc1c(N=c2c(=O)c3ccccc3c2=O)c(=O)n(-c2ccccc2)n1C [MLS000105950] |
| > 50 | CCOc1ccc2noc3c2c1C(=O)c1ccccc1-3 [MLS000106837] |
| 10.3 | c1ccc(CSc2nnc(-c3ccco3)c(-c3ccco3)n2)cc1 [MLS-0029114.0001] |
| > 50 | O=C1Cc2ccccc2C(=O)N1CCc1ccccc1 [2-(2-phenylethyl)-4H-isoquinoline-1,3-dione] |
| 33.1 | N#Cc1c(N)sc(=S)c2c1CCN(Cc1ccccc1)C2 [3-Amino-7-benzyl-1-thioxo-5,6,7,8-tetrahydro-1H-thiopyrano[3,4-c]pyridine-4-carbonitrile] |
| > 50 | Nc1cccc2cnccc12 [isoquinolin-5-amine] |
| > 50 | CCOC(=O)C(C(=O)OCC)c1cc(Br)c2noc3c2c1C(=O)c1ccccc1-3 [MLS000038842] |
| > 50 | [O-]/[N+](=C\c1ccncc1)c1ccccc1 |
| > 50 | Oc1nc(Nc2ccccc2)cc2ccccc12 [MLS000043701] |

The next lines start with the molecule.

| Structure (SMILES) | IC50 [µM] |
| --- | --- |
| COc1ccc(Br)cc1C=c1sc2nc(-c3ccco3)nn2c1=O [5-[(5-bromanyl-2-methoxy-phenyl)methylidene]-2-(furan-2-yl)-[1,3]thiazolo[3,2-b][1,2,4]triazol-6-one] | 1.78 |
| CCn1nc(-c2ccccc2)nc2c(=O)n(C)c(=O)nc1-2 [1-Ethyl-6-methyl-3-phenyl-1H-pyrimido[5,4-e][1,2,4]triazine-5,7-dione] | > 50 |
| N#Cc1c(N2CCCC2)nc(N)c2c(N)nc(N3CCCC3)cc12 [SMR000061605] | > 50 |
| CC(=O)Nc1cc(OC(C)=O)c2nonc2c1OC(C)=O [Acetic acid 7-acetoxy-5-acetylamino-benzo[1,2,5]oxadiazol-4-yl ester] | > 50 |
| COc1cccc2c(C)c(C(=O)O)[nH]c12 | 6.35 |
| O=C(O)C1Nc2c(O)cccc2C2C=CCC12 (stereo not given) | 7.42 |
| Cn1ncnc2c(=O)n(C)c(=O)nc1-2 | 32.4 |
| CCn1nc(-c2cccs2)nc2c(=O)n(C)c(=O)nc1-2 [1-ethyl-6-methyl-3-thiophen-2-yl-pyrimido[5,4-e][1,2,4]triazine-5,7-dione] | 41.8 |
| COc1ccc2noc3c2c1C(=O)c1ccccc1-3 [MLS000106874] | > 50 |
| [O-]/[N+](=C\c1ccc(OC(F)F)cc1)c1ccccc1 [1-[4-(difluoromethoxy)phenyl]-N-phenylmethanimine oxide] | > 50 |
| O=C(Nc1ccc2nc(-c3ccco3)c(-c3ccco3)nc2c1)N1CCCCCC1 | 19.2 |
| O=C1C=Cc2ccccc2C1=O [1,2-dihydronaphthalene-1,2-dione] | 20.4 |
| Cc1ccc2c(c1C)NC(C(=O)O)C1CC=CC21 (stereo not given) | 4.2 |
| O=C(NC1(O)C(=O)c2ccccc2C1=O)c1ccccc1 [N-(2-hydroxy-1,3-dioxo-2-indenyl)benzamide] | > 50 |
| Cc1ccc2c(c1)C1C=CCC1C(C(=O)O)N2 (stereo not given) [MLS-0067149.0001] | 5.2 |
| Cc1ccccc1Nc1cc2ccccc2c(O)n1 [3-[(2-methylphenyl)amino]-2H-isoquinolin-1-one] | > 50 |
